Tests used:
[1] = test system: M2-10B4 mouse marrow stromal cell line; test: Alkaline phosphatase (ALP) activity assay in M2 cells; assay type: cell-based; settings: for inhibition of oxysterol-induced alkaline phosphatase activity: 22R+20S, SC-560 10 μM, ACA 25 μM, AACOCF3 20 μM, PD98059 20 μM
Method: (§1) Cells: M2-10B4 mouse marrow stromal cell line obtained from American Type Culture Collection (ATCC, Rockville, Md., U.S.A.) was derived from bone marrow stromal cells of a (C57BL/6J×C3H/HeJ) F1 mouse, and support human and murine myelopoiesis in long-term cultures (as per ATCC) and have the ability to differentiate into osteoblastic and adipocytic cells. Unless specified, these cells were cultured in RPMI 1640 containing 10% heat-inactivated FBS, and supplemented with 1 mM sodium pyruvate, 100 U/ml penicillin, and 100 […] (all from Irvine Scientific).
Alkaline phosphatase activity assay: Colorimetric alkaline phosphatase (ALP) activity assay on whole cell extracts was performed as previously described.
Test 1: M2 cells at confluence were treated with control vehicle (C), or 10 μM oxysterols, in an osteogenic medium consisting of RPMI 1640 to which 10% fetal bovine serum (FBS), 50 μg/ml ascorbate and 3 mM beta-glycerophosphate (βGP) were added. After 3 days of incubation, alkaline phosphatase (ALP) activity was determined in cell homogenates by a colorimetric assay. […] FIG. 3A is a bar graph depicting the effect of various oxysterols on alkaline phosphatase activity in M2 cells.
M2 cells at confluence were treated in osteogenic medium with control vehicle (C) or a combination of 22R and 20S oxysterols, at the indicated concentrations. ALP activity was measured after 3 days as described above. […] FIG. 3B is a bar graph depicting the effect of a combination of oxysterols at various doses on alkaline phosphatase activity in M2 cells.
Test 2: M2 cells were grown in RPMI medium containing 10% fetal bovine serum (FBS). At confluence, the cells were treated in RPMI containing 5% FBS plus ascorbate at 50 μg/ml and β-glycerophosphate at 3 mM to induce osteoblastic differentiation. Adipogenic differentiation was induced by treating the cells in growth medium plus 10 ˜M troglitazone. A vehicle (C) or oxysterol treatment was applied to cells in a variety of doses (in μM): 20S-Hydroxycholesterol, 25-Hydroxycholesterol, 22R-Hydroxycholesterol; 22S-Hydroxycholesterol; 7-ketocholesterol. Cells were always treated at 90% confluence. After 4 days, alkaline phosphatase activity was determined in whole cell lysates and normalized to protein. Alternatively, MSC cultures were prepared and treated with oxysterols as described above. Cells were treated at 90% confluence with the combination of 22R-Hydroxycholesterol and 20S-Hydroxycholesterol, each at 5 uM, for 4 to 96 hours. The oxysterols where removed and fresh media without oxysterols was added for a total duration of 96 hours. Alkaline phosphatase activity was measured in whole cell extracts and normalized to protein.
M2 cells were treated at 90% confluence with vehicle (C), or oxysterols 20S-Hydroxycholesterol or 22S-Hydroxycholesterol at (0.5 μM) or (1 μM), in the absence or presence of cytochrome P450 inhibitor (SKF525A 10 μM (+)). MSC cultures were also treated at 90% confluence with vehicle (C), or 20S-Hydroxycholesterol (2 μM), in the absence or presence of cytochrome P450 […] (Benzylimidazole 50 μM) or SKF525A (10 μM). After 4 days, alkaline phosphatase activity was measured in whole cell extracts and normalized to protein.
Next, a combination of 22R and 20S oxysterols (RS, 2.5 μM each) were added in the presence or absence of SC as indicated. After 3 days, ALP activity was measured as described earlier. […] (B) M2 cells were treated as described in (A) and after 10 days matrix mineralization in cultures was quantified by a ^45Ca incorporation assay as described earlier.

[2] = test system: M2-10B4 mouse marrow stromal cell line; test: Matrix mineralization in M2 cells (von Kossa staining, 45Ca incorporation assay); assay type: cell-based; settings: 22R+20S, 10 days, SC-560 10 μM, ACA 25 μM, AACOCF3 20 μM, PD98059 20 μM
Method: as §1
(§2) Von Kossa and oil red O staining—Matrix mineralization in cell monolayers was detected by silver nitrate staining as previously described. Oil red O staining for detection of adipocytes was performed as previously described.
^45Ca incorporation assay—Matrix mineralization in cell monolayers was quantified using the ^45Ca incorporation assay as previously described.
M2 cells at confluence were treated in osteogenic medium with control vehicle or 5 μM oxysterols, alone or in combination as indicated. After 14 days, mineralization was identified by a von Kossa staining, which appears black. FIG. 3C is a depiction of von Kossa staining of M2 cells exposed to various conditions.
M2 cells were treated with control vehicle (C) or a combination of 22R and 20S oxysterols at increasing concentrations. After 14 days, matrix mineralization in cultures was quantified using a ^45Ca incorporation assay. […] FIG. 3D is a bar graph depicting the effect of a combination of oxysterols at various doses on calcium incorporation in M2 cells.
(§3) Next, a combination of 22R and 20S oxysterols (RS, 2.5 μM each) were added in the presence or absence of SC as indicated. After 3 days, ALP activity was measured as described earlier. […] (B) M2 cells were treated as described in (A) and after 10 days matrix mineralization in cultures was quantified by a ^45Ca incorporation assay as described earlier. Results from a representative of three experiments are shown, reported as the mean±SD of quadruplicate determinations, normalized to protein concentration. (C) M2 cells were pretreated with 20 μM SC for 4 hours, followed by the addition of RS in the presence or absence of SC as described above. After 8 days, total RNA was isolated and analyzed for osteocalcin (Osc) and 18S rRNA expression by Northern blotting as previously described. Data from densitometric analysis of the Northern blot is shown in (D) as the average of duplicate samples, normalized to 18S rRNA. (E) M2 cells at confluence were pretreated for 2 hours with control vehicle (C), or PLA2 inhibitors ACA (25 μM) and AACOCF3 (AAC, 20 μM), in osteogenic medium. Next, a combination of 22R and 20S oxysterols (RS, 2.5 μM) was added in the presence or absence of the inhibitors as indicated. After 3 days, ALP activity was measured as previously described. Data from a representative of three experiments are shown, reported as the mean±SD of quadruplicate determinations, normalized to protein concentration (p<0.01 for RS vs. RS+ACA and RS+AAC). (F) M2 cells were treated as described in (E). After 10 days, matrix minerliazation in cultures was quantified using a ^45Ca incorporation assay as previously described. Results from a representative of three experiments are shown, reported as the mean of quadruplicate determinations±SD, normalized to protein concentration (p<0.01 for RS vs. RS+ACA and RS+AAC).
(A) M2 cells at confluence were pretreated for four hours with RPMI containing 1% FBS, followed by treatment with control vehicle or 5 μM 20S oxysterol for 1, 4, or 8 hours. Next total cell extracts were prepared and analyzed for levels of native or phosphorylated ERK (pERK) using specific antibodies as previously described.

[3] = test system: M2 cells; test: Adipogenesis of troglitazone-treated M2 cells (oil Red O staining, adipocyte count); assay type: cell-based, mouse; settings: M2 cells treated with Tro 10 μM, oxysterols 10 μM, 10 days
Method: as §2
Test 1: M2 cells at 90% confluence were treated with vehicle (C), PPAR-γ activator, troglitazone 10 uM (Tro), alone or in combination with 10 μM oxysterols 20S-, 22R-, or 25S-hydroxycholesterol. After 8 days, adipocytes were identified by oil Red 0 staining and quantified by counting under a phase contrast microscope. FIG. 6A is a bar graph depicting the effect of oxysterols on reducing adipogenesis of MSC.
Test 2: (A) M2 cells at confluence were treated in RPMI containing 10% FBS with control vehicle or 10 μM troglitazone (Tro) in the absence or presence of 10 μM 20S or 22S oxysterols. After 10 days, adipocytes were visualized by oil Red O staining and quantified by light microscopy, shown in (B). Data from a representative of four experiments are shown, reported as the mean SD of quadruplicate determinations (p<0.001 for Tro vs. Tro+20S and Tro+22S). (C) M2 cells were treated at confluence with 10 μM Tro, alone or in combination with 10 μM 20S oxysterol. After 10 days, total RNA was isolated and analyzed for lipoprotein lipase (LPL), adipocyte P2 gene (aP2) or 18S rRNA expression by Northern blotting as described (Ref). Data from densitometric analysis of the Northern blot is shown in (D) as the average of duplicate samples, normalized to 18S rRNA.

[4] = test system: marrow stromal cells; test: Osteogenic activity of marrow stromal cells (alkaline phosphatase, mineral formation), overall; assay type: cell-based, mouse; settings: M2 cells; SC-560 at 1-20 μM; NS-398 at 20 μM
Method: as §3, with “Data from a representative of three experiments are shown, reported as the mean±SD of quadruplicate determinations, normalized to protein concentration (p<0.01 for RS vs. RS+ACA and RS+AAC). (F) M2 cells were treated as described in (E).” left out, “Results from a representative of three experiments are shown, reported as the mean of quadruplicate determinations±SD, normalized to protein concentration (p<0.01 for RS vs. RS+ACA and RS+AAC).” left out

[5] = test system: M2 cells; test: Toxicity of COX inhibitors in M2 cell cultures; assay type: cell-based, mouse

CCCCC/C=C\C/C=C\C/C=C\C/C=C\CCCC(=O)C(F)(F)F [AACOCF3]
inhibition of oxysterol-induced alkaline phosphatase activity [1]: inhibited | inhibition of oxysterol-induced mineralization [2]: inhibited

CCCC(C(=O)OCCN(CC)CC)(c1ccccc1)c1ccccc1.Cl [SKF525A]
effect on the osteogenic effects of the oxysterols (alkaline phosphatase activity) ([1]; 20S or 22S 0.5 or 1 μM, SKF525A 10 μM, 4 days): potentiated

CCCCC/C=C\C/C=C\C/C=C\C/C=C\CCCC(=O)O [arachidonic acid]
reversal of the effect of the PLA2 inhibitors on oxysterol-induced alkaline phosphatase activity ([1]; 25 μM arachidonic acid (data not shown)): reversed

CC(C)CCC[C@@H](C)[C@H]1CC[C@H]2[C@@H]3C(=O)C=C4C[C@@H](O)CC[C@]4(C)[C@H]3CC[C@]12C [7K, 7-ketocholesterol, reference compound]
induction of alkaline phosphatase activity ([1]; osteogenic medium, 10 μM oxysterols, 3 days): did not induce | inhibition of adipogenesis [3]: unable to inhibit

COc1cccc(-c2cc(=O)c3ccccc3o2)c1N [PD98059]
inhibition of oxysterol-induced mineralization [2]: inhibited

CCCCCc1ccc(/C=C/C(=O)Nc2ccccc2C(=O)O)cc1 [ACA]
inhibition of oxysterol-induced alkaline phosphatase activity [1]: inhibited | inhibition of oxysterol-induced mineralization [2]: inhibited

CS(=O)(=O)Nc1ccc([N+](=O)[O-])cc1OC1CCCCC1 [NS-398]
inhibition of the osteogenic effects of oxysterol combinations [4]: negligible inhibitory effects | highest non-toxic dose [5]: 20 µM

CCCCC[C@H](O)/C=C/[C@H]1[C@H](O)CC(=O)[C@@H]1C/C=C\CCCC(=O)O [PGE2, prostaglandin E2]
reversal of the effect of the COX-1 inhibitor on oxysterol-induced alkaline phosphatase activity ([1]; 1 μM PGE2 (data not shown)): reversed
